Where two headings read alike, the source gives them in different places.
Tests used:
[1] = target: T1, Orai1/STIM1 ICRAC channel (Homo sapiens, UniProt Q96D31); assay: Patch clamp (PatchXpress) of calcium currents in cells stably transfected with STIM1 and Orai1; format: cell-based
T1 construct: expressed in transfected cells
Source text: Isolated, stably transfected cells were monitored with patch clamp analysis (PatchExpress) to detect calcium currents with overexpressed, stably transfected STIM1 and Orai1 nucleic acids.

[2] = target: STIM1 and Orai1 in HEK293 cells (Homo sapiens, UniProt Q96D31); conditions: HEK293 cells coexpressing STIM1 and Orai1; cited from earlier work
[3] = target: T2, CRAC current in olf186-F+Stim transfectants (Drosophila melanogaster, UniProt Q9U6B8); assay: Whole-cell patch-clamp of Ca2+ current in olf186-F+Stim transfected S2 cells; format: cell-based
T2 construct: A cDNA clone, pAc5.1/olf186-F, encoding full-length Drosophila olf186-F-RB, was generated for transfection into S2 cells; expressed in transfected cells; host or cells: Drosophila S2 cells (transient, Nucleofector)
T2 sequence (Q9U6B8 1-351): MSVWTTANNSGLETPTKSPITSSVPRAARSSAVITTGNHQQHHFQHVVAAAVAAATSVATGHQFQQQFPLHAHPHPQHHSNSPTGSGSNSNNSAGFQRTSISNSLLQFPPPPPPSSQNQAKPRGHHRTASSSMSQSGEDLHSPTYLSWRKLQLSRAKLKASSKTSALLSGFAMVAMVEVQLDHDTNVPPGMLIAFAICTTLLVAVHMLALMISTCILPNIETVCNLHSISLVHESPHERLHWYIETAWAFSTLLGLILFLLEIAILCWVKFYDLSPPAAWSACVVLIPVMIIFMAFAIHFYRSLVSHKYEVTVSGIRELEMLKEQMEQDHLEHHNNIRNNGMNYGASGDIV
Procedure: Whole-Cell Recording. Patch-clamp experiments were performed at room temperature in the standard whole-cell recording configuration, using a holding potential of −10 mV. […] To calculate current densities, peak current amplitudes were divided by membrane capacitance for each cell.

[4] = system: endogenous SOCE in HEK-Zeo control cells; conditions: read-out: IC50 of inhibition of calcium entry, thapsigargin-mediated store depletion, readdition of external calcium
Procedure: (§1) To test whether the […] entry pathway constitutively activated by STIM1 overexpression is pharmacologically similar to endogenous SOCE, HEK[STIM1] cells are pre-incubated with increasing doses of 2-APB and STIM1-induced Ca^2+ entry is measured.

[5] = system: HEK[STIM1] cells (STIM1 overexpression)
Procedure: as §1

colon cancer cells = conditions: cited from earlier work
Jurkat cells = conditions: cited from earlier work
STIM1/Orai1 CRAC channel = target: T3, STIM1/Orai1 CRAC channel (Homo sapiens, UniProt Q96D31); assay: FLIPR assay of Orai1/STIM1-dependent Ca2+ entry in stably transfected STIM1/Orai1 cells; format: cell-based
T3 construct: expressed in transfected cells
Procedure: Cells are plated at 30K cells/50 uL media/well in PDL-coated 384-well plate (Greiner Cell Coat; VWR cat#82051-358) 24 hours before experiment. 20 μM Fluo-4-AM (Invitrogen cat#F-14201) are prepared, resuspended with 10 μl F-127, 20% pluronic solution in DMSO (Invitrogen cat#P3000MP), and added to 2.3 mL culture medium. Cells are loaded with dye by adding 5 μl of the 20 μM Fluo-4-AM solution to each well of the 384-well plate that already contained 50 μL of culture medium. The plates are kept in dark, RT, for approximately 1 hour. HBSS/1% HEPES/0.2 g/L MgCl2 was prepared and cells transferred to a plate washer to remove dye-loading solution from cells. The cells are washed with HBSS/1% HEPES/0.2 g/L MgCl2, being careful not to dislodge the cells. The final volume of buffer left on the cells should equal 40 μL. The cell plate is transferred to FLIPR monitoring instrument (Molecular Devices, Sunnyvale, Calif.), and 10 μL compound is added and incubated for 30 minutes. Data points (1/sec) are acquired prior to the addition of CaCl2 to establish basal readings. 5 μL 11 mM CaCl2 (1.0 mM CaCl2 final) is added, and the fluorescence read every second for 1 minute, then every 10 seconds for 14 minutes. […]
RBL-2H3 cells plated in 384-well plates are loaded for 45 min with FLUO-4-AM (2 μM final concentration) in a Hanks-buffered salt solution. […] Fifteen minutes after addition of Tg, store-operated calcium entry is initiated by adding external Ca^2+ to a final concentration of 1.8 mM and the cells monitored for a further 10-15 minutes. Calcium levels are monitored throughout the assay using a FLIPR^384 (Molecular Devices fluorimetric imaging plate reader for high throughput screening).
The kinetic data from the FLIPR^384 are analyzed and stored in a relational database (ActivityBase; IDBS). Ten quantitative parameters are calculated that define various aspects of the store-operated calcium entry response. […]

Drosophila S2 cells = assay: Single-cell ratiometric fura-2 [Ca2+]i imaging of S2 cells; format: cell-based; conditions: control cells, 1 μM ionomycin in zero-Ca2+ solution, average
Procedure: RNAi in Drosophila S2 Cells. RNAi experiments were adapted from the protocols described by Worby et al. Drosophila S2 cells (0.5×10^6) were seeded in T-25 flasks in 2 ml of complete S2 medium. The next day, medium was removed and replaced with 2 ml of serum-free S2 medium. Twenty micrograms of dsRNA was added, and cells were incubated at room temperature for 45 min with gentle rocking. Four milliliters of S2 medium was added, and cells were incubated for 5 days at 24° C. Cells then were harvested and either plated for single-cell Ca^2+ imaging and patch-clamp experiments or processed for RT-PCR analysis.
Single-Cell [Ca^2+]i imaging. Ratiometric [Ca^2+]i Imaging was performed as described in ref. 3, using solution recipes described in Table 3. Transfected cells were recognized by coexpressed enhanced GFP (EGFP), using filters to avoid contamination of Fura-2 fluorescence by bleedthrough of GFP fluorescence. Data were analyzed with METAFLUOR software (Universal Imaging, Downington, Pa.) and ORIGINPRO 7.5 software (OriginLab, Northampton, Mass.) and are expressed as means ±SEM.
Effects of olf186-F Knockdown and Overexpression on Ca^2+ Influx and CRAC Currents in Single Cells. […]

T3 sequence (Q96D31 whole entry): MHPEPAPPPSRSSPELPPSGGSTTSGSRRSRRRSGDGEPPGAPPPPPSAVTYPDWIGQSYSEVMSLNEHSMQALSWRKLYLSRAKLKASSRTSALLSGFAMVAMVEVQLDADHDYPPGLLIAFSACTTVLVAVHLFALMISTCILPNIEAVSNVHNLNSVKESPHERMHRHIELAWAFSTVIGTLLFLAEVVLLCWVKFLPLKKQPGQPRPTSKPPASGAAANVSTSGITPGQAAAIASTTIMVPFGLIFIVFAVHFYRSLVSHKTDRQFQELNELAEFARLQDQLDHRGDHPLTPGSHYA
T1 sequence (Q96D31 whole entry): as above
Chain of STIM1 and Orai1 in HEK293 cells (Q96D31 whole entry): as above

For `NCCOB(c1ccccc1)c1ccccc1` [2-APB, 2-aminoethoxydiphenyl borate], the “effect on CRAC channel currents (FIG. 8)” value [1] is given as “potentiation”, the “store-operated Ca2+ entry” value [2] is given as “completely blocked” and the “effect on enhanced Ca2+ currents” value ([3]; 5 μM) is given as “potentiation of current before blocking”. The “effect on enhanced Ca2+ currents” value ([3]; 20 μM) was “blocked”, the IC50 [4] was 11.8 µM and the “calcium entry at lower concentrations” value ([5]; absence of store depletion, lower concentrations) was “potentiated”. It also gave an IC50 ([5]; read-out: IC50 of inhibition of calcium entry, thapsigargin-mediated store depletion, readdition of external calcium) of 10.5 µM and an IC50 ([5]; read-out: IC50 of inhibition of constitutive calcium entry, absence of store depletion) of 10.8 µM.

For `Cc1nnsc1C(=O)Nc1ccc(-n2nc(C(F)(F)F)cc2C(F)(F)F)cc1` [BTP-2], the SOCE (colon cancer cells) is given as “inhibits”, the proliferation (colon cancer cells) is given as “inhibits” and the SOCE (Jurkat cells) is given as “inhibits”. The proliferation (Jurkat cells) was “inhibits”.

With `O=C(Nc1scc(-c2ccc(Br)cc2)c1C(=O)O)c1cccc(F)c1` [Cmpd B] the “CRAC-channel mediated Ca2+ entry” value (STIM1/Orai1 CRAC channel) was “inhibit” and the IC50 (STIM1/Orai1 CRAC channel; read-out: IC50 (inhibition of calcium inflow)) was 1.9 µM.

With `[Gd+3]` [Gd^3+] the “effect on enhanced Ca2+ currents” value ([3]; 50 nM) was “blocked”.

For `O=C(Nc1scc(-c2ccc(Br)cc2)c1C(=O)O)c1ccc(F)cc1` [compound A], the “CRAC-channel mediated Ca2+ entry” value (STIM1/Orai1 CRAC channel) was “inhibit”.

In the case of `C[C@H](CCC(=O)O)C[C@H](C)C[C@H](C)C(=O)/C=C(\O)[C@H](C)C[C@H](C)C/C=C/[C@@H](C)[C@@H](O)[C@@H](C)[C@@H](O)C[C@@H]1CC[C@@](C)([C@H]2CC[C@@](C)([C@@H](C)O)O2)O1` [ionomycin], the “peak of Ca2+ release transient” value (Drosophila S2 cells) is reported as 200 nM.

From patent US8507269B2, “Calcium channel proteins and uses thereof” (CalciMedica, Inc., priority 2007, dated 2013)
